Assay results: paper PMC5540273, “Progress towards a public chemogenomic set for protein kinases and a call for contributions” (PLoS ONE, 2017)

Legend:
Assay in all cases: KINOMEscan competition binding
CDK5 = CDK5 (Homo sapiens, UniProt Q00535); conditions: read-out: %Inh CDK5
AURKC = target: T1, AURKC (Homo sapiens, UniProt Q9UQB9); conditions: read-out: %Inh AURKC
T1 sequence (Q9UQB9 1-309): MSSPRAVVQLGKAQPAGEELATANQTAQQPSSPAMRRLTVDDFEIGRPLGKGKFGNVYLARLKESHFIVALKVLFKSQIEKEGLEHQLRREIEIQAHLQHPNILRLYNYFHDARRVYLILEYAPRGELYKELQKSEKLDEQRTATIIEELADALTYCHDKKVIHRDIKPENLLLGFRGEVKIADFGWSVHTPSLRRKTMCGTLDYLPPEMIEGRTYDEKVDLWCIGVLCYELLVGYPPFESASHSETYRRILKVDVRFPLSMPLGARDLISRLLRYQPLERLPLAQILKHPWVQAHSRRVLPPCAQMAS

ACVR1B = target: T2, ACVR1B (Homo sapiens, UniProt P36896); conditions: read-out: %Inh ACVR1B
T2 sequence (P36896 24-505): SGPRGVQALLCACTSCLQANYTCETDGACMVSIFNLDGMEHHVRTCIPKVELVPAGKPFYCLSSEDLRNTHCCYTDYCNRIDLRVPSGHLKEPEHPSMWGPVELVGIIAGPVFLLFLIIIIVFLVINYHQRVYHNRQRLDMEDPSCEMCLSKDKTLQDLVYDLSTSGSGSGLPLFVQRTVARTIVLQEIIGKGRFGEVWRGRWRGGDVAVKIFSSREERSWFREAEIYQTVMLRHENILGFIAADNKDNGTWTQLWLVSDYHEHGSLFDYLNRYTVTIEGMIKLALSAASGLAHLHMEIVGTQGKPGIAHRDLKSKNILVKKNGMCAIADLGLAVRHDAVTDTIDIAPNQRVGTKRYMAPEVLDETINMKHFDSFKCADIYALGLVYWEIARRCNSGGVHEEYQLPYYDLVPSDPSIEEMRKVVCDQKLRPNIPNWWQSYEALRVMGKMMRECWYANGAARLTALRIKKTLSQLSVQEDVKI

INSR = INSR (Homo sapiens, UniProt P06213); conditions: read-out: %Inh INSR
GAK = target: T3, GAK (Homo sapiens, UniProt O14976); conditions: read-out: %Inh GAK
T3 sequence (O14976 1-1311): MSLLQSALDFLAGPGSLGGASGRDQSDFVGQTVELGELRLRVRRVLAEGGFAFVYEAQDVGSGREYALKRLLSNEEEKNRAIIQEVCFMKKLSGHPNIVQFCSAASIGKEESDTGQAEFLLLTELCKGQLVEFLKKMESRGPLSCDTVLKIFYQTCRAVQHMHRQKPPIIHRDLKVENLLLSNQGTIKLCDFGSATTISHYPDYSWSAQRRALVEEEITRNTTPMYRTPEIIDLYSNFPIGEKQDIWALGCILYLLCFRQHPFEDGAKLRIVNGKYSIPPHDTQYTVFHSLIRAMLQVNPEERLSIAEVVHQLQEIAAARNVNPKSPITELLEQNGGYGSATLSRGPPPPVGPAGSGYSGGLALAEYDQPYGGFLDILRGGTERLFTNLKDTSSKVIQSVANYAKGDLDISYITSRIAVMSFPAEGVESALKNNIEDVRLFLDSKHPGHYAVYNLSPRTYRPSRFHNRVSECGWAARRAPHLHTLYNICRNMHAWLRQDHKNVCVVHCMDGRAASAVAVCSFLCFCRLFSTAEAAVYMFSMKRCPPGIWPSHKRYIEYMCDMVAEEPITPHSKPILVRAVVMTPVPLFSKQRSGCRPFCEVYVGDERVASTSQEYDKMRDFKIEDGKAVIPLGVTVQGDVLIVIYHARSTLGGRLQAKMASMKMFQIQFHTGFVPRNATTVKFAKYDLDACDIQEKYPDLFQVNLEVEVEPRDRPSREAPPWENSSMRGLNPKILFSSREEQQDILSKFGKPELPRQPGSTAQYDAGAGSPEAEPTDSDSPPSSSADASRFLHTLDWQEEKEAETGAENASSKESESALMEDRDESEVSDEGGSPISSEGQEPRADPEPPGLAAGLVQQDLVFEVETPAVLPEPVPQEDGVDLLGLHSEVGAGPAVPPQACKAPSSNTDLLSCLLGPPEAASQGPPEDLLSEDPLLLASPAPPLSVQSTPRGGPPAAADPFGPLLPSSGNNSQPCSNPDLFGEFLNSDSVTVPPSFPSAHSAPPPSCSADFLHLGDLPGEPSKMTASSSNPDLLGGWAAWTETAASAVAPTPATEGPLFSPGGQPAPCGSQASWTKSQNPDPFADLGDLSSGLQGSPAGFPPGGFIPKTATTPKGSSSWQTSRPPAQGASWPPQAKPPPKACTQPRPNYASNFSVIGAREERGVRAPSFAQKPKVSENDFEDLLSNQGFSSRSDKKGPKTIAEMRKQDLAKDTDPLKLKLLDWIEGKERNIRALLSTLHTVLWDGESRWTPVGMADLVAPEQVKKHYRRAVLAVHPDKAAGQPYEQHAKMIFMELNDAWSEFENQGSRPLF

CSF1R = CSF1R (Homo sapiens, UniProt P07333); conditions: read-out: %Inh CSF1R
IRAK3 = target: T4, IRAK3 (Homo sapiens, UniProt Q9Y616); conditions: read-out: %Inh IRAK3
T4 sequence (Q9Y616 1-596): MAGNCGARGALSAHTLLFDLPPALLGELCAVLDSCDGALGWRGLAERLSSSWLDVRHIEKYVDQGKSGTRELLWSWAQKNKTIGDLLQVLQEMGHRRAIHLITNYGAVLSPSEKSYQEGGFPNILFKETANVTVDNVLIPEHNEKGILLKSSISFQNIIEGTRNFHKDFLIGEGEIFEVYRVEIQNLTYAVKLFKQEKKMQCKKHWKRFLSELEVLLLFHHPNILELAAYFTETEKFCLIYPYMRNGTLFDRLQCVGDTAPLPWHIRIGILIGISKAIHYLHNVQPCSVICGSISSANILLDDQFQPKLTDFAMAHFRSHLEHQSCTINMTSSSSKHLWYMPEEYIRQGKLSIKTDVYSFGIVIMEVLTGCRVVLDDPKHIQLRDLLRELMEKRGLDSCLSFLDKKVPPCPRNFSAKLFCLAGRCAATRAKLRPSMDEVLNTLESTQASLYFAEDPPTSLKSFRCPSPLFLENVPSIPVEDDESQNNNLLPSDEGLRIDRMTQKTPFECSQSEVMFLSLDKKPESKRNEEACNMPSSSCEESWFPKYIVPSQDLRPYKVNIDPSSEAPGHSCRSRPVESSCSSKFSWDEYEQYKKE

CSF1R, sequence (P07333 20-972): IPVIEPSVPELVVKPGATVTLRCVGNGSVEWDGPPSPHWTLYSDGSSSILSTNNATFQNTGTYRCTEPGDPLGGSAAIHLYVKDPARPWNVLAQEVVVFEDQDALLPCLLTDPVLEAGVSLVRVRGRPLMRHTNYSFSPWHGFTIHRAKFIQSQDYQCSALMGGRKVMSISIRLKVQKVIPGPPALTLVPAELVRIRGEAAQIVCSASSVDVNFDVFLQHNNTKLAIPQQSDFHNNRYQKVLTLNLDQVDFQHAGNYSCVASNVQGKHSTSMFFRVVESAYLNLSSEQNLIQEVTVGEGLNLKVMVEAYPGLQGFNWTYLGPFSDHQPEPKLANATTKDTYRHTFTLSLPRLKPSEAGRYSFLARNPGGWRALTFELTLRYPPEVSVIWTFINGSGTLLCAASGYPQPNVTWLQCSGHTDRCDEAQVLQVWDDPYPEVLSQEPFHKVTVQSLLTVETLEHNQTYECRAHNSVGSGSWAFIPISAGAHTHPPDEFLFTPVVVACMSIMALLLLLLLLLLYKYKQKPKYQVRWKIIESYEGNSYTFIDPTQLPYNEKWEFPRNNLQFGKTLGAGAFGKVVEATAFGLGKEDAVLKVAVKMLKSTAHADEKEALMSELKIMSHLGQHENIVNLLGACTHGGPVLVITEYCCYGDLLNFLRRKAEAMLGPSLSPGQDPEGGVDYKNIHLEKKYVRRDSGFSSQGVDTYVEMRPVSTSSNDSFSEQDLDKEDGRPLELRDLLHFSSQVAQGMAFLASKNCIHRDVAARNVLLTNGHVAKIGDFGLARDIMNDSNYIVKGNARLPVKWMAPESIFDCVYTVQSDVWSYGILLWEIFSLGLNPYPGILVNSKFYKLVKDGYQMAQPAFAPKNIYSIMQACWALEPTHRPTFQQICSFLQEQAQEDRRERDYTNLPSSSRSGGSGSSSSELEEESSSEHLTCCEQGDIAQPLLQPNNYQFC
CDK5, sequence (Q00535 whole entry): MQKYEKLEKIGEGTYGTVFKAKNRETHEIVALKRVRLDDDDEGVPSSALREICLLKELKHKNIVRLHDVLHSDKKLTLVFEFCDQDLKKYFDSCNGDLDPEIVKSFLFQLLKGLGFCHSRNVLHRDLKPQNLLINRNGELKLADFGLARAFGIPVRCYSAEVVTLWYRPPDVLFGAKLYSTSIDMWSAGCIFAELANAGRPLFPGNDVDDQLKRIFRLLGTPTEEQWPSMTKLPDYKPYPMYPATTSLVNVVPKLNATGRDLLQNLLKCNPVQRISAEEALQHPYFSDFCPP
INSR, sequence (P06213 28-1382): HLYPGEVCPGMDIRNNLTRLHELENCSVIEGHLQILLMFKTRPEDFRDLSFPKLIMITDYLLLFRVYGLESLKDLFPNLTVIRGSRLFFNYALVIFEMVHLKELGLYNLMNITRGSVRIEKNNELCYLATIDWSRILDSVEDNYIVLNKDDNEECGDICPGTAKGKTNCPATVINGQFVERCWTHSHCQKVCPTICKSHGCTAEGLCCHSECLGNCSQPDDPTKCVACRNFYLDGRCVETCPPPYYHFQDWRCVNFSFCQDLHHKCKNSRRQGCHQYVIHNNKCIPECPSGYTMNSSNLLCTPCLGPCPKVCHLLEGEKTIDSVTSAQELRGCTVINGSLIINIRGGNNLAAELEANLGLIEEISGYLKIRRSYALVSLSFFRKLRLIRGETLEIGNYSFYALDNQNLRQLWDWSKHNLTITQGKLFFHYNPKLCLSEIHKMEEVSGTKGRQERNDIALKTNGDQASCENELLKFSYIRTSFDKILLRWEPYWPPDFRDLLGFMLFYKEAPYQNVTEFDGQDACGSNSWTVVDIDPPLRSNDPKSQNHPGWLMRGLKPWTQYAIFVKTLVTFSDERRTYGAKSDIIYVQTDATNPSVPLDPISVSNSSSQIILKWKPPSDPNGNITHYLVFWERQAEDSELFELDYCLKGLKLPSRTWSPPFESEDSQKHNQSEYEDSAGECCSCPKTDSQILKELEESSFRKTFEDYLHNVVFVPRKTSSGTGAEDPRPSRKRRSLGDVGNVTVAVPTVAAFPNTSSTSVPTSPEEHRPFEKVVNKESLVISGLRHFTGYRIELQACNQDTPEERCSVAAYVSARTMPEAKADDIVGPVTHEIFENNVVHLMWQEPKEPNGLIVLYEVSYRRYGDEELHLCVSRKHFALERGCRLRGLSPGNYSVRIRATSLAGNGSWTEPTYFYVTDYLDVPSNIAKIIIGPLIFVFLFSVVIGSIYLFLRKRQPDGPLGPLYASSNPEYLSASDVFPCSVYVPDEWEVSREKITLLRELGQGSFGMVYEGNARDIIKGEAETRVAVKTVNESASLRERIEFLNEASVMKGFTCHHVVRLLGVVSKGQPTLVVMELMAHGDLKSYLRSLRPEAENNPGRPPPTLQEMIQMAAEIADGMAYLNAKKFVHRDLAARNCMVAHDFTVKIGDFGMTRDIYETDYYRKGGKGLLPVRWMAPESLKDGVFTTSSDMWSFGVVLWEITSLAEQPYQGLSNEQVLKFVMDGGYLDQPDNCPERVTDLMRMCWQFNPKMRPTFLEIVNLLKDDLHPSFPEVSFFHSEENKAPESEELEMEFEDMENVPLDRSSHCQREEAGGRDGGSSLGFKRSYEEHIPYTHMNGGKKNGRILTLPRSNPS

SMILES | inhibition at 1 µM (CDK5) [%] | inhibition at 1 µM (AURKC) [%] | inhibition at 1 µM (ACVR1B) [%] | inhibition at 1 µM (INSR) [%] | inhibition at 1 µM (GAK) [%] | inhibition at 1 µM (CSF1R) [%] | inhibition at 1 µM (IRAK3) [%]
Cn1cc(-c2cnc(N)c3c(-c4ccc5c(c4)CCN5C(=O)Cc4ccccc4)csc23)cn1 [UNC10225012A] | 2 | 92.2 | 9 | 12 | 11 | 99.9 | 5
O=c1cc(N2CCOCC2)nc2n(Cc3cccc(Cl)c3Cl)c(C3CC3)nn12 [UNC10225469A] | 7 | 0 | 0 | 0 | 11 | 0 | 0
COc1cccc(OC)c1C(=O)Nc1cccc(-c2nn3ccccc3c2-c2ccnc(Nc3cccc(F)c3)n2)c1 [UNC10225310A] | 21 | 70 | 15 | 0 | 6 | 60 | 0
CS(=O)(=O)Cc1ccc(Nc2nccc(-c3c(-c4cccc(NC(=O)C5CCCCC5)c4)nn4ncccc34)n2)cc1 [UNC10225159A] | 4 | 49 | 0 | 42 | 14 | 79 | 3
Cc1ccc(NC(=O)Nc2cccc(C(F)(F)F)c2)cc1 [UNC10225187A] | 0 | 19 | 85 | 0 | 0 | 0 | 100
